Data as given in patent EP3079693B1 (priority 2013, dated 2015).

How the values were obtained:
[1] = biological target: influenza A RNA-dependent RNA polymerase (Influenza A virus, UniProt P03428+P03431+P03433); test: cell-based
[2] = tested on: constitutive gene expression; test: Counter screen: separate reporter system with cell death-activated reporter construct (constitutive gene expression); settings: for observed toxicity or efficacy in either assay tested: antiviral and counterscreen assay

Compound | IC50 [1] | observed toxicity or efficacy in either assay tested [2] | toxicity in antiviral and counterscreen assays ([2]; at 50uM, both antiviral and counterscreen assay)
COc1ccc(-c2cc3c(=O)[nH]nc(SCc4ccc5c(c4)OCO5)n3n2)cc1OC [A0551, 7-(benzo[d][1,3]dioxol-5-ylmethylthio)-2-(3,4-dimethoxyphenyl)pyrazolo[1,5-d][1,2,4]triazin-4(5H)-one] | > 50 µM | >50 µM (no observed toxicity or efficacy in either assay tested) | 
CCc1c(C)nc2cc(-c3cc(C)on3)nn2c1NCCc1ccccn1 [A0445, 6-ethyl-5-methyl-2-(5-methylisoxazol-3-yl)-N-(2-(pyridin-2-yl)ethyl)pyrazolo[1,5-a]pyrimidin-7-amine] | > 50 µM | >50 µM (no observed toxicity or efficacy in either assay tested) | 
COc1ccc(-c2cc3nccc(NCc4ccccc4OC)n3n2)cc1 [A0547, N-(2-methoxybenzyl)-2-(4-methoxyphenyl)pyrazolo[1,5-a]pyrimidin-7-amine] | > 50 µM | >50 µM (no observed toxicity or efficacy in either assay tested) | 
CCc1c(C)nc2cc(-c3cc(OC)cc(OC)c3)nn2c1NCCc1ccccc1 [A0527, 2-(3,5-dimethoxyphenyl)-6-ethyl-5-methyl-N-phenethylpyrazolo[1,5-a]pyrimidin-7-amine] | > 50 µM | >50 µM (no observed toxicity or efficacy in either assay tested) | 
CCc1c(C)nc2cc(-c3ccc(OC)c(OC)c3)nn2c1NCc1cc(OC)ccc1OC [A0526, N-(2,5-dimethoxybenzyl)-2-(3,4-dimethoxyphenyl)-6-ethyl-5-methylpyrazolo[1,5-a]pyrimidin-7-amine] | > 50 µM | >50 µM (no observed toxicity or efficacy in either assay tested) | 
COc1ccc(-c2c(C)nn3c(NCC(C)c4ccccc4)cc(C)nc23)cc1OC (stereo not shown) [A0549, 3-(3,4-dimethoxyphenyl)-2,5-dimethyl-N-(2-phenylpropyl)pyrazolo[1,5-a]pyrimidin-7-amine] | > 50 µM | >50 µM (no observed toxicity or efficacy in either assay tested) | 
COc1ccc(-c2cc3nc(C)cc(NCc4ccc5c(c4)OCO5)n3n2)cc1 [A0530, N-(benzo[d][1,3]dioxol-5-ylmethyl)-2-(4-methoxyphenyl)-5-methylpyrazolo[1,5-a]pyrimidin-7-amine] | > 50 µM | >50 µM (no observed toxicity or efficacy in either assay tested) | 
CCc1c(C)nc2cc(-c3ccc(F)cc3)nn2c1NCCc1ccccn1 [A0436, 6-ethyl-2-(4-fluorophenyl)-5-methyl-N-(2-(pyridin-2-yl)ethyl)pyrazolo[1,5-a]pyrimidin-7-amine] | > 10 µM |  | >10uM (toxic to both antiviral and counterscreen at 50uM)
COc1ccc(-c2cc3nc(-c4ccccc4)cc(NCc4ccccc4C)n3n2)cc1OC [A0528, 2-(3,4-dimethoxyphenyl)-N-(2-methylbenzyl)-5-phenylpyrazolo[1,5-a]pyrimidin-7-amine] | > 50 µM | >50 µM (no observed toxicity or efficacy in either assay tested) | 
CCc1c(C)nc2cc(-c3ccc(OC)c(OC)c3)nn2c1NCCc1ccc(F)cc1 [A0440, 2-(3,4-dimethoxyphenyl)-6-ethyl-N-(4-fluorophenethyl)-5-methylpyrazolo[1,5-a]pyrimidin-7-amine] | > 50 µM | >50 µM (no observed toxicity or efficacy in either assay tested) | 
Cc1cc(NC(CO)C(O)c2ccccc2)n2nc(-c3cccc(F)c3)cc2n1 (stereo not shown) [A0531, 2-(2-(3-fluorophenyl)-5-methylpyrazolo[1,5-a]pyrimidin-7-ylamino)-1-phenylpropane-1,3-diol] | > 50 µM | >50 µM (no observed toxicity or efficacy in either assay tested) | 
